Our source for the zone of inhibition values is ChEMBL document CHEMBL4304805, “Antibacterial activity of 2-amino-4-hydroxypyrimidine-5-carboxylates and binding to Burkholderia pseudomallei 2-C-methyl-d-erythritol-2,4-cyclodiphosphate synthase” (Bioorg Med Chem Lett, 2019).

Holding throughout (type): functional
What all share (settings): read-out: DIZ

One test deals with Bacillus cereus. The test can be described thus: Antibacterial activity against Bacillus cereus at 0.5 mM by Kirby Bauer disk diffusion method.
In test [1] the test system is Burkholderia thailandensis. The test can be described thus: Antibacterial activity against Burkholderia thailandensis at 0.5 mM by Kirby Bauer disk diffusion method.
The next test deals with Corynebacterium xerosis. The test can be described thus: Antibacterial activity against Corynebacterium xerosis at 0.5 mM by Kirby Bauer disk diffusion method.
A further test deals with Micrococcus luteus. The test can be described thus: Antibacterial activity against Micrococcus luteus at 0.5 mM by Kirby Bauer disk diffusion method.
The test system of test [2] is Mycolicibacterium smegmatis. The test can be described thus: Antibacterial activity against Mycobacterium smegmatis at 0.5 mM by Kirby Bauer disk diffusion method. On the technique in general: A growth-free zone around the sample is the usual read-out of agar diffusion tests.
The test system of test [3] is Corynebacterium pseudodiphtheriticum. The test can be described thus: Antibacterial activity against Corynebacterium pseudodiphtheriticum at 0.5 mM by Kirby Bauer disk diffusion method.
The subject of a further test is Pseudomonas aeruginosa. The test can be described thus: Antibacterial activity against Pseudomonas aeruginosa at 0.5 mM by Kirby Bauer disk diffusion method.
In the next test the test system is Escherichia coli. The test can be described thus: Antibacterial activity against Escherichia coli at 0.5 mM by Kirby Bauer disk diffusion method.
The subject of the next test is Klebsiella pneumoniae. The test can be described thus: Antibacterial activity against Klebsiella pneumoniae at 0.5 mM by Kirby Bauer disk diffusion method.

Take `CCOC(=O)c1cnc(NCC2CCCO2)nc1O` (stereo not given): the zone of inhibition at 500 µM in the test with Bacillus cereus amounted to 0 mm; in test [1] it was 11 mm; in the test on Corynebacterium xerosis, 0 mm; in the test with Micrococcus luteus it was 0 mm; in [2], 15 mm; in test [3] it was 0 mm. The zone of inhibition at 500 µM in the test on Pseudomonas aeruginosa, in the test on Escherichia coli and in the test on Klebsiella pneumoniae was 0 mm throughout.

Take `CCOC(=O)c1cnc(Nc2ccc(N3CCCCC3)cc2)nc1O`: the zone of inhibition at 500 µM in the test on Bacillus cereus was found to be 15 mm; in [1] it was 14 mm; in the test with Corynebacterium xerosis, 0 mm; in the test on Micrococcus luteus it was 0 mm; in test [2] it was 16 mm; in test [3], 0 mm. Moreover, the zone of inhibition at 500 µM with Pseudomonas aeruginosa was determined as 13 mm; in the test with Escherichia coli, 19 mm; with Klebsiella pneumoniae, 13 mm.

On to `CCOC(=O)c1cnc(NCCc2ccc(Cl)c(Cl)c2)nc1O`, for which the zone of inhibition at 500 µM in the test on Bacillus cereus came to 10 mm; in [1], 0 mm; in the test with Corynebacterium xerosis, 0 mm; in the test with Micrococcus luteus, 0 mm; in [2], 0 mm; in [3], 0 mm. Further, the zone of inhibition at 500 µM with Pseudomonas aeruginosa, in the test on Escherichia coli and in the test on Klebsiella pneumoniae was 0 mm each time.

For `CCOC(=O)c1cnc(Nc2ccc(CC(=O)O)cc2)nc1O`, the zone of inhibition at 500 µM with Bacillus cereus is 11 mm; in test [1] it was 8 mm; in the test with Corynebacterium xerosis, 0 mm; in the test with Micrococcus luteus it was 0 mm; in test [2], 0 mm; in [3], 0 mm. For the same molecule, the zone of inhibition at 500 µM came out at 0 mm with Pseudomonas aeruginosa, 10 mm in the test on Escherichia coli and 9 mm with Klebsiella pneumoniae.

Regarding `CCOC(=O)c1cnc(NCCc2ccccc2Cl)nc1O`, the zone of inhibition at 500 µM came out at 9 mm with Bacillus cereus; 12 mm in test [1]; 0 mm with Corynebacterium xerosis; 0 mm with Micrococcus luteus; 15 mm in test [2]; 0 mm in [3]. Further, the zone of inhibition at 500 µM with Pseudomonas aeruginosa, with Escherichia coli and with Klebsiella pneumoniae was 0 mm throughout.

`CCOC(=O)c1cnc(NCc2cccc(Cl)c2)nc1O`: the zone of inhibition at 500 µM in the test with Bacillus cereus is 0 mm; in [1], 11 mm; in the test with Corynebacterium xerosis, 0 mm; in the test on Micrococcus luteus, 0 mm; in test [2], 14 mm; in [3] it was 0 mm. Besides, the zone of inhibition at 500 µM in the test with Pseudomonas aeruginosa, in the test with Escherichia coli and in the test with Klebsiella pneumoniae was 0 mm each time.

In the case of `CCOC(=O)c1cnc(Nc2ccc3cn[nH]c3c2)nc1O`, the zone of inhibition at 500 µM in the test with Bacillus cereus was found to be 10 mm; in [1], 11 mm; in the test on Corynebacterium xerosis it was 7 mm; in the test on Micrococcus luteus, 0 mm; in test [2], 17 mm; in test [3], 0 mm. Also, the zone of inhibition at 500 µM with Pseudomonas aeruginosa came out at 12 mm; with Escherichia coli, 7 mm; in the test on Klebsiella pneumoniae, 12 mm.

Take `CCOC(=O)c1cnc(NCc2ccc(F)cc2)nc1O`: the zone of inhibition at 500 µM in the test on Bacillus cereus worked out at 19 mm; in [1], 8 mm; with Corynebacterium xerosis, 0 mm; in the test on Micrococcus luteus it was 0 mm; in test [2], 0 mm; in test [3], 0 mm. Also, the zone of inhibition at 500 µM in the test with Pseudomonas aeruginosa, in the test on Escherichia coli and with Klebsiella pneumoniae was 0 mm in each case.

With `O=C(O)c1cnc(Nc2ccc(Br)cc2)nc1O`, the zone of inhibition at 500 µM came out at 12 mm in the test on Bacillus cereus; 13 mm in test [1]; 16 mm in the test on Corynebacterium xerosis; 0 mm in the test on Micrococcus luteus; 17 mm in [2]; 16 mm in [3]. For the same molecule, the zone of inhibition at 500 µM in the test with Pseudomonas aeruginosa turned out to be 0 mm; in the test on Escherichia coli, 15 mm; in the test with Klebsiella pneumoniae, 12 mm.

As to `O=C(O)c1cnc(NCCc2ccc(Cl)c(Cl)c2)nc1O`, the zone of inhibition at 500 µM in the test with Bacillus cereus worked out at 13 mm; in test [1] it was 11 mm; in the test on Corynebacterium xerosis it was 0 mm; in the test with Micrococcus luteus it was 0 mm; in [2], 11 mm; in test [3], 0 mm. The results for the zone of inhibition at 500 µM in the test on Pseudomonas aeruginosa, in the test on Escherichia coli and with Klebsiella pneumoniae were 0 mm, 0 mm and 8 mm, respectively.

Consider `O=C(O)c1cnc(Nc2ccc3[nH]ncc3c2)nc1O`, for which the zone of inhibition at 500 µM in the test on Bacillus cereus was found to be 7 mm; in [1], 10 mm; in the test on Corynebacterium xerosis it was 0 mm; in the test with Micrococcus luteus it was 0 mm; in test [2], 14 mm; in test [3] it was 0 mm. Besides, the zone of inhibition at 500 µM with Pseudomonas aeruginosa, with Escherichia coli and with Klebsiella pneumoniae was 0 mm in each case.

Regarding `CCOC(=O)c1cnc(Nc2ccc(-c3ccncc3)cc2)nc1O`, the zone of inhibition at 500 µM in the test on Bacillus cereus came out at 0 mm; in [1] it was 0 mm; in the test with Corynebacterium xerosis, 0 mm; in the test with Micrococcus luteus, 0 mm; in test [2], 16 mm; in test [3], 0 mm. Further, the zone of inhibition at 500 µM with Pseudomonas aeruginosa, in the test on Escherichia coli and in the test on Klebsiella pneumoniae was 0 mm throughout.

For `CCOC(=O)c1cnc(NCc2cc(Cl)ccc2Cl)nc1O`, the zone of inhibition at 500 µM came to 13 mm with Bacillus cereus; 9 mm in test [1]; 0 mm in the test on Corynebacterium xerosis; 14 mm with Micrococcus luteus; 0 mm in [2]; 0 mm in test [3]. For the same molecule, the zone of inhibition at 500 µM in the test on Pseudomonas aeruginosa, in the test on Escherichia coli and in the test on Klebsiella pneumoniae was 0 mm throughout.

As for `Nc1ccc(C(=O)O)c(O)c1` [AMINOSALICYLIC ACID], the zone of inhibition at 500 µM in the test on Bacillus cereus stood at 9 mm; in [1], 12 mm; in the test on Corynebacterium xerosis, 0 mm; in the test on Micrococcus luteus it was 0 mm; in test [2] it was 14 mm; in [3], 0 mm. Further, the zone of inhibition at 500 µM was 0 mm in the test with Pseudomonas aeruginosa, 11 mm with Escherichia coli and 0 mm with Klebsiella pneumoniae.

With `CCOC(=O)c1cnc(Nc2ccc(-c3ccccc3)cc2)nc1O`, the zone of inhibition at 500 µM in the test on Bacillus cereus stood at 11 mm; in test [1], 0 mm; with Corynebacterium xerosis it was 0 mm; with Micrococcus luteus it was 0 mm; in test [2], 0 mm; in test [3], 0 mm. The zone of inhibition at 500 µM in the test with Pseudomonas aeruginosa, in the test on Escherichia coli and in the test on Klebsiella pneumoniae was 0 mm throughout.
